In patent US20230321278A1, “AAV VECTOR DELIVERY SYSTEMS” (President and Fellows of Harvard College, priority 2020, published 2023):
Entries after “also recorded” stand apart in the source; their conditions may differ.

Key:
sympathetic nerve = assay: Sympathetic nerve ablation by intradermal injection of 6-OHDA; assay type: in vivo, mice
Description: The sympathetic nervous system is constantly active at a basal level to maintain body physiology. To explore if basal sympathetic nerve activity affects the other two cell types in this nerve-APM-HFSC tri-lineage unit, the sympathetic nerve in telogen skin was ablated through intradermal injection of 6-hydroxydopamine (6-OHDA, a selective neurotoxin for sympathetic nerves) (Kostrzewa and Jacobowitz, 1974), when HFSCs are quiescent. […] By P30, hair follicles reached full anagen throughout the control back skin, whereas hair follicles in the sympathectomized skin remained mostly in telogen (FIG. 1C). […]
Chemical ablation: 6-Hydroxydopamine hydrobromide (6-OHDA, Sigma 162957) solution was prepared freshly by dissolving 6-OHDA in 0.1% ascorbic acid (in 0.9% sterile NaCl) for intradermal injection. […] Skin was analyzed one week after ablation.
(§1) H&E stained sections were used for analysis. For quantification, anagen II and anagen III were considered as early anagen, anagen IV was mid anagen, and anagen V and anagen VI were full anagen. Hair cycle stages were determined using previously described criteria (Muller-Rover et al., 2001). Ten to twenty hair follicles were individually assessed and staged in each animal, and at least 4 different animals were used per condition. […] The percent of dorsal skin in anagen was quantified using Fiji. […]

HFSCs = assay: Adrenergic agonist topical application, anagen entry; assay type: in vivo, mice; conditions: 10 mg/kg body weight once a day for 10 days, extended 2nd telogen
Description: Next, the impact of elevated sympathetic tone on HFSC activation was explored. Sympathetic nerve terminals secrete the neurotransmitter norepinephrine, which binds to adrenergic receptors on target cells. To elevate the sympathetic tone, isoproterenol, a pan-adrenergic receptor agonist, was topically applied at the extended 2nd telogen. […] Loss of sympathetic nerve innervations makes HFSCs more dormant, whereas elevated sympathetic tone promotes HFSC activation.
as §1, with “The effects of cold exposure and adrenergic agonist treatment (isoproterenol and procaterol) on anagen entry were quantified by monitoring the change of hair regrowth as previously described (Fan et al., 2018; Sheen et al., 2015). The” for “The”

human HFSCs = assay: Colony formation assay (CFA); assay type: cell-based; conditions: 0.1 μM procaterol
Method: Human hair follicles were isolated from normal scalp tissues. To isolate hair follicle stem cells (HFSCs), hair follicles were dissected, and subcutaneous fat and connective tissues were carefully removed with a scalpel. The lower hair bulb and upper epithelial layer were removed as previously described (Oshima et al., 2001; Rochat et al., 1994). For HFSC isolation, hair follicles were incubated in 1.25 U/mL dispase (Gibco) and 0.5 mg/mL collagenase I (Sigma-Aldrich) solution at 37° C. for 30 minutes, following which the mesenchymal sheath was carefully removed with forceps. To obtain a single cell HFSC suspension, tissue was digested with 0.05% trypsin/EDTA solution (Gibco) for 1 h at 37° C., and cells were filtered through a sterile 40[…] cell strainer (BD Biosciences). Single cell suspensions were then centrifuged at 1300 rpm for 10 minutes and plated on mitomycin C (Cayman) treated J2 feeders at a cell density of 5000 cells/well in a 12-well culture plate (Falcon) in E media supplemented with EGF and additives as described in (Mou et al., 2016; Nowak and Fuchs, 2009). After 48 hours, 0.1 μM procaterol (Sigma) was added (freshly prepared). Medium was changed every 2 days. On day 10, plates were fixed with 4% PFA and stained with Rhodamine B (Sigma). […] CFA quantification was done using Fiji.

| SMILES | ablation of the sympathetic nerve in skin (sympathetic nerve; intradermal injection, telogen skin) | HFSC activation and anagen entry (sympathetic nerve; sympathectomy by intradermal 6-OHDA) | anagen entry (back skin hair regrowth) (HFSCs) | growth of cultured human HFSCs (area covered by colonies) (human HFSCs) |
| --- | --- | --- | --- | --- |
| NCCc1cc(O)c(O)cc1O [6-OHDA, 6-hydroxydopamine] | ablated the sympathetic nerve efficiently | substantial delay in HFSC activation and anagen entry |  |  |
| CC(C)NCC(O)c1ccc(O)c(O)c1 (centres unmarked) [isoproterenol] |  |  | entered anagen earlier; also recorded: precocious anagen entry |  |
| CCC(NC(C)C)C(O)c1ccc(O)c2[nH]c(=O)ccc12 (centres unmarked) [procaterol] |  |  | accelerated anagen entry; also recorded: premature anagen entry | promoted their growth |
